Assay results from US10323022B2, “Pyrrolidinyl urea, pyrrolidinyl thiourea and pyrrolidinyl guanidine compounds as TrkA kinase inhibitors” (Array BioPharma Inc., priority 2011, dated 2019).

Biological target: TrkA (Homo sapiens (Human), UniProt P04629)
Experiment: TrkA Omnia Assay
Type: biochemical
Conditions: averaged IC50; 20 nM enzyme, 500 μM ATP, 10 μM peptide substrate
How it was run: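 Recombinant TrkA (20 nM) preincubated 10 min at ambient temperature with compound, then Omnia Tyr Peptide #4 (10 μM) and ATP (500 μM) added in 25 mM MOPS pH 7.5, 5 mM MgCl2, 0.005% Triton X-100. Fluorescence (ex 360/em 485 nm) followed continuously for 70 min; IC50 from initial rates by 4- or 5-parameter logistic fit.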

Sequence of TrkA (P04629 33-796): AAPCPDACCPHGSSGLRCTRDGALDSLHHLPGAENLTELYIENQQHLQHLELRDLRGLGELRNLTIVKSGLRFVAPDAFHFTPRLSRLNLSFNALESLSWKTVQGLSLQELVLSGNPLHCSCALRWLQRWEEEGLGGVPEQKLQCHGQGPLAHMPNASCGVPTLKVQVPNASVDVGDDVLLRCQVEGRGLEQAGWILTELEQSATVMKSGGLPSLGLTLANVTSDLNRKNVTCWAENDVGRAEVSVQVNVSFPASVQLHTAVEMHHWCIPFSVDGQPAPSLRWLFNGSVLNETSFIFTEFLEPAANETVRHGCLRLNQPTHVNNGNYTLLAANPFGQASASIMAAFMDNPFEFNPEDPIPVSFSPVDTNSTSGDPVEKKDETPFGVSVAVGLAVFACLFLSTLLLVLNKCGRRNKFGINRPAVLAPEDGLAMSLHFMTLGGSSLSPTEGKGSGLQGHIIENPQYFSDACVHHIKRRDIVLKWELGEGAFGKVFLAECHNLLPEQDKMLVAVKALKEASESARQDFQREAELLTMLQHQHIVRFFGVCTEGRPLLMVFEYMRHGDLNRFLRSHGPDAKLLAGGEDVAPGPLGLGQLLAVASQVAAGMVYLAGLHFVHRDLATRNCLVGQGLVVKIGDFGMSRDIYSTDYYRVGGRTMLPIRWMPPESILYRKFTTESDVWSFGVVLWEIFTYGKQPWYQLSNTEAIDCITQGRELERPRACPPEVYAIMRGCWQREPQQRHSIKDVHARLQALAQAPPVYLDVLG

| SMILES | IC50 [nM] |
| --- | --- |
| COCCN1C[C@@H](NC(=O)Nc2cc(C(C)(C)CO)nn2-c2ccccc2)[C@H](c2ccccc2)C1 [Example 94, 1-(3-(1-hydroxy-2-methyl-propan-2-yl)-1-phenyl-1H-pyrazol-5-yl)-3-((3S,4R)-1-(2-methoxyethyl)-4-phenylpyrrolidin-3-yl)urea] | 100 to 1000 |
| COCCN1C[C@@H](NC(=O)Nc2c3c(nn2-c2ccccc2)C[S+]([O-])C3)[C@H](c2ccccc2)C1 (stereo partly drawn) [Example 95, 1-((3S,4R)-1-(2-methoxy-ethyl)-4-phenylpyrrolidin-3-yl)-3-(5-oxido-2-phenyl-4,6-dihydro-2H-thieno [3,4-c]pyrazol-3-yl)urea] | < 100 |
| COCCN1C[C@@H](NC(=O)Nc2cc(-c3ccncc3)nn2C)[C@H](c2ccccc2)C1 [Example 96, 1-((3S,4R)-1-(2-methoxy-ethyl)-4-phenylpyrrolidin-3-yl)-3-(1-methyl-3-(pyridin-4-yl)-1H-pyrazol-5-yl)urea] | < 100 |
| COCCN1C[C@@H](NC(=O)Nc2cc(-c3ccccc3)nn2C)[C@H](c2cc(F)cc(F)c2)C1 [Example 98, 1-((3S,4R)-4-(3,5-difluorophenyl)-1-(2-methoxyethyl)pyrrolidin-3-yl)-3-(1-methyl-3-phenyl-1H-pyrazol-5-yl) urea] | < 100 |
| COCCN1C[C@@H](NC(=O)Nc2cc(-c3cccs3)nn2C)[C@H](c2cc(F)cc(F)c2)C1 [Example 99, 1-((3S,4R)-4-(3,5-difluorophenyl)-1-(2-methoxyethyl)pyrrolidin-3-yl)-3-(1-methyl-3-(thiophen-2-yl)-1H-pyrazol-5-yl)urea] | < 100 |
| COCCN1C[C@@H](NC(=O)Nc2cc(COC)nn2-c2ccccc2)[C@H](c2ccccc2)C1 [Example 100, 1-((3S,4R)-1-(2-methoxy-ethyl)-4-phenylpyrrolidin-3-yl)-3-(3-(methoxy-methyl)-1-phenyl-1H-pyrazol-5-yl)urea] | 100 to 1000 |
| COCCN1C[C@@H](NC(=O)Nc2c(C)c(COC)nn2-c2ccccc2)[C@H](c2ccccc2)C1 [Example 101, 1-((3S,4R)-1-(2-methoxy-ethyl)-4-phenylpyrrolidin-3-yl)-3-(3-(methoxy-methyl)-4-methyl-1-phenyl-1H-pyrazol-5-yl) urea] | < 100 |
| COCCN1C[C@@H](NC(=O)Nc2cc(-c3ccccc3OC)nn2C)[C@H](c2ccc(F)c(F)c2)C1 [Example 106, 1-((3S,4R)-4-(3,4-difluorophenyl)-1-(2-methoxyethyl)pyrrolidin-3-yl)-3-(3-(2-methoxy-phenyl)-1-methyl-1H-pyrazol-5-yl)urea] | 100 to 1000 |
| COCCN1C[C@@H](NC(=O)Nc2cc(-c3ccc(F)cc3)nn2C)[C@H](c2ccccc2)C1 [Example 107, 1-(3-(4-fluorophenyl)-1-methyl-1H-pyrazol-5-yl)-3-((3S,4R)-1-(2-methoxy-ethyl)-4-phenylpyrrolidin-3-yl)urea] | < 100 |
| COCCN1C[C@@H](NC(=O)Nc2cc(-c3ccc(OC)cc3)nn2C)[C@H](c2ccccc2)C1 [Example 108, 1-((3S,4R)-1-(2-methoxy-ethyl)-4-phenylpyrrolidin-3-yl)-3-(3-(4-methoxy-phenyl)-1-methyl-1H-pyrazol-5-yl)urea] | < 100 |
| COCCN1C[C@@H](NC(=O)Nc2cc(-c3ccccc3)nn2C)[C@H](c2cccc(C(F)(F)F)c2)C1 [Example 109, 1-((3S,4R)-1-(2-methoxy-ethyl)-4-(3-(trifluoro-methyl)phenyl)pyrrolidin-3-yl)-3-(1-methyl-3-phenyl-1H-pyrazol-5-yl) urea] | 100 to 1000 |
| COCCN1C[C@@H](NC(=O)Nc2cc(-c3ccccc3)nn2C)[C@H](c2cccc(F)c2)C1 [Example 110, 1-((3S,4R)-4-(3-fluoro-phenyl)-1-(2-methoxy-ethyl)pyrrolidin-3-yl)-3-(1-methyl-3-phenyl-1H-pyrazol-5-yl)urea] | < 100 |
| COCCN1C[C@@H](NC(=O)Nc2cc(-c3ccccc3)nn2C)[C@H](c2ccc(F)cc2F)C1 [Example 111, 1-((3S,4R)-4-(2,4-difluorophenyl)-1-(2-methoxyethyl)pyrrolidin-3-yl)-3-(1-methyl-3-phenyl-1H-pyrazol-5-yl)urea] | < 100 |
| COCCN1C[C@@H](NC(=O)Nc2cc(-c3ccc(F)cc3)nn2C)[C@H](c2cccc(F)c2)C1 [Example 112, 1-((3S,4R)-4-(3-fluoro-phenyl)-1-(2-methoxy-ethyl)pyrrolidin-3-yl)-3-(3-(4-fluorophenyl)-1-methyl-1H-pyrazol-5-yl)urea] | < 100 |
| COCCN1C[C@@H](NC(=O)Nc2c3c(nn2-c2ccccc2)CCC3)[C@H](c2cccc(F)c2)C1 [Example 116, 1-((3S,4R)-4-(3-fluoro-phenyl)-1-(2-methoxy-ethyl)pyrrolidin-3-yl)-3-(2-phenyl-2,4,5,6-tetrahydrocyclopenta [c]pyrazol-3-yl)urea] | < 100 |

The remaining lines, values ahead:

| IC50 [nM] | SMILES |
| --- | --- |
| < 100 | COCCN1C[C@@H](NC(=O)Nc2cc(-c3ccncc3)nn2C)[C@H](c2ccc(F)c(F)c2)C1 [Example 97, 1-((3S,4R)-4-(3,4-difluorophenyl)-1-(2-methoxyethyl)pyrrolidin-3-yl)-3-(1-methyl-3-(pyridin-4-yl)-1H-pyrazol-5-yl)urea] |
| < 100 | COCCN1C[C@@H](NC(=O)Nc2cc(-c3ccc(C)cc3)nn2C)[C@H](c2ccc(F)c(F)c2)C1 [Example 102, 1-((3S,4R)-4-(3,4-difluorophenyl)-1-(2-methoxyethyl)pyrrolidin-3-yl)-3-(1-methyl-3-p-tolyl-1H-pyrazol-5-yl)urea] |
| < 100 | COCCN1C[C@@H](NC(=O)Nc2cc(-c3cccc(C)c3)nn2C)[C@H](c2ccc(F)c(F)c2)C1 [Example 103, 1-((3S,4R)-4-(3,4-difluorophenyl)-1-(2-methoxyethyl)pyrrolidin-3-yl)-3-(1-methyl-3-m-tolyl-1H-pyrazol-5-yl) urea] |
| < 100 | COCCN1C[C@@H](NC(=O)Nc2cc(-c3ccccc3C)nn2C)[C@H](c2ccc(F)c(F)c2)C1 [Example 104, 1-((3S,4R)-4-(3,4-difluorophenyl)-1-(2-methoxyethyl)pyrrolidin-3-yl)-3-(1-methyl-3-o-tolyl-1H-pyrazol-5-yl) urea] |
| < 100 | COCCN1C[C@@H](NC(=O)Nc2cc(-c3cccc(OC)c3)nn2C)[C@H](c2ccc(F)c(F)c2)C1 [Example 105, 1-((3S,4R)-4-(3,4-difluorophenyl)-1-(2-methoxyethyl)pyrrolidin-3-yl)-3-(3-(3-methoxy-phenyl)-1-methyl-1H-pyrazol-5-yl)urea] |
| < 100 | COCCN1C[C@@H](NC(=O)Nc2cc(-c3ccc(F)cc3)nn2C)[C@H](c2ccc(F)c(F)c2)C1 [Example 113, 1-((3S,4R)-4-(3,4-difluorophenyl)-1-(2-methoxyethyl)pyrrolidin-3-yl)-3-(3-(4-fluoro-phenyl)-1-methyl-1H-pyrazol-5-yl)urea] |
| < 100 | COCCN1C[C@@H](NC(=O)Nc2cc(-c3cccc(F)c3)nn2C)[C@H](c2ccc(F)c(F)c2)C1 [Example 114, 1-((3S,4R)-4-(3,4-difluorophenyl)-1-(2-methoxyethyl)pyrrolidin-3-yl)-3-(3-(3-fluoro-phenyl)-1-methyl-1H-pyrazol-5-yl)urea] |
| < 100 | COCCN1C[C@@H](NC(=O)Nc2cc(-c3ccccc3F)nn2C)[C@H](c2ccc(F)c(F)c2)C1 [Example 115, 1-((3S,4R)-4-(3,4-difluorophenyl)-1-(2-methoxyethyl)pyrrolidin-3-yl)-3-(3-(2-fluoro-phenyl)-1-methyl-1H-pyrazol-5-yl)urea] |
